Laboratory results taken from ChEMBL document CHEMBL5608182, “Synthesis and evaluation of neuroactive steroids with novel pharmacophore at C-21 let identify a compound with advantageous PK profile and higher EC50 and Emax as PAM on GABAA receptor” (Eur J Med Chem, 2024).

Key:
[1] = molecular target: GABA-A receptor; alpha-1/beta-2/gamma-2 (Homo sapiens) (UniProt P14867+P47870+P18507); test: (§1) Positive allosteric modulation of synaptic alpha1beta2gamma2 GABA-A receptor (unknown origin) transfected in LTK cells assessed as potentiation of GABA-induced peak current amplitude by measuring maximal efficacy at 0.01 to 10 uM at -80 mV holding potential preincubated for 30 secs followed by GABA stimulation for 2 secs by Q-patch assay relative to control; format: cell-based; settings: filed as positive allosteric modulator, dose 0.01-10 µM, time 32.0 sec
[2] = molecular target: Gamma-aminobutyric acid receptor subunit alpha-4/beta3/delta (Homo sapiens, UniProt O14764+P28472+P48169); test: Positive allosteric modulation of extrasynaptic alpha4beta3delta GABA-A receptor (unknown origin) transfected in CHO cells assessed as potentiation of GABA-induced peak current amplitude at -80 mV holding potential preincubated for 30 secs followed by GABA stimulation for 2 secs by manual patch assay; format: cell-based
Sequence of Gamma-aminobutyric acid receptor subunit alpha-4/beta3/delta (P28472 whole entry): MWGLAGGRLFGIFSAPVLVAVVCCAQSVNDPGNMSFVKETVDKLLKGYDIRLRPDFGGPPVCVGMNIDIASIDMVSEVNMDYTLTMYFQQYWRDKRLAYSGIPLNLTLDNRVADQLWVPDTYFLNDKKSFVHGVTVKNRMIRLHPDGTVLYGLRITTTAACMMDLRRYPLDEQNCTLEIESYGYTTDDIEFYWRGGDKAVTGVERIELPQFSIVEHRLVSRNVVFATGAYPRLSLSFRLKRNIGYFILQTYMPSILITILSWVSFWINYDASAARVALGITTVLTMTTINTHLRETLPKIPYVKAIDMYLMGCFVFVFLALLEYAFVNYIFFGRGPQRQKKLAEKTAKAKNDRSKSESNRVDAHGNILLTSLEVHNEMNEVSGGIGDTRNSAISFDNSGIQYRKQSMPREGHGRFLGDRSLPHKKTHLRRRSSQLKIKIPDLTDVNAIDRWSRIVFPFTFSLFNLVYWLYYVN
Sequence of Gamma-aminobutyric acid receptor subunit alpha-4/beta3/delta (P48169 whole entry): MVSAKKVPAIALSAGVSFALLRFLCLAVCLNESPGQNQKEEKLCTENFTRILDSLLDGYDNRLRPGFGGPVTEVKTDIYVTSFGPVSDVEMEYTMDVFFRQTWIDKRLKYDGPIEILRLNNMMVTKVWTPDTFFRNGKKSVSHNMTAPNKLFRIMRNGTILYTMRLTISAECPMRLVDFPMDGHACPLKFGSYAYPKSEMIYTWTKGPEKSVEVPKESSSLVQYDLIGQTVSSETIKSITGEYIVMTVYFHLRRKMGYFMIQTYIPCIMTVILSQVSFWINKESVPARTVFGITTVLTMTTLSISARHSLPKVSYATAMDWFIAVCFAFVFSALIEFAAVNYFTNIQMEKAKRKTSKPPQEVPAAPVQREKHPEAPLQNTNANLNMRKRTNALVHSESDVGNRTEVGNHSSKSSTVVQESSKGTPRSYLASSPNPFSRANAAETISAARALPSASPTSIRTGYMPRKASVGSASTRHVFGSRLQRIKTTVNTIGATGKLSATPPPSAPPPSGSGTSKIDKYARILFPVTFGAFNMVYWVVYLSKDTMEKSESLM
Sequence of Gamma-aminobutyric acid receptor subunit alpha-4/beta3/delta (O14764 whole entry): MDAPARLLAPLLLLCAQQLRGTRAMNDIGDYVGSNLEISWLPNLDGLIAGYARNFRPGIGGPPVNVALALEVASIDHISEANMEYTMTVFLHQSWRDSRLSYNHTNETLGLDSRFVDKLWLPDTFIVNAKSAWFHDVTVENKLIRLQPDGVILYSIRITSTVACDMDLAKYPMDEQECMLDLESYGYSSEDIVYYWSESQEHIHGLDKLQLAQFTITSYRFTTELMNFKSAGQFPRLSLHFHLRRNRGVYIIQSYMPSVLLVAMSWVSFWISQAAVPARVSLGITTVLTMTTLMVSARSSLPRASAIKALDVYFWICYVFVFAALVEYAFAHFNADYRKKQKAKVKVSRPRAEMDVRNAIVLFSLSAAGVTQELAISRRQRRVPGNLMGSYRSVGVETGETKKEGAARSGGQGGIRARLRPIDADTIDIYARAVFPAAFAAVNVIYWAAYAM

[3] = molecular target: Gamma-aminobutyric acid receptor subunit alpha-4/beta3/delta (Homo sapiens) (UniProt P28472+P48169+O14764); test: as §1, with “extrasynaptic alpha4beta3delta” for “synaptic alpha1beta2gamma2”, “CHO” for “LTK”, “manual patch” for “Q-patch”; format: cell-based; settings: filed as positive allosteric modulator, dose 0.01-10 µM, time 32.0 sec
[4] = molecular target: T1, GABA-A receptor; alpha-1/beta-2/gamma-2 (Homo sapiens, UniProt P14867+P18507+P47870); test: Positive allosteric modulation of synaptic alpha1beta2gamma2 GABA-A receptor (unknown origin) transfected in LTK cells assessed as potentiation of GABA-induced peak current amplitude at -80 mV holding potential preincubated for 30 secs followed by GABA stimulation for 2 secs by Q-patch assay; format: cell-based
T1 sequence (P14867 whole entry): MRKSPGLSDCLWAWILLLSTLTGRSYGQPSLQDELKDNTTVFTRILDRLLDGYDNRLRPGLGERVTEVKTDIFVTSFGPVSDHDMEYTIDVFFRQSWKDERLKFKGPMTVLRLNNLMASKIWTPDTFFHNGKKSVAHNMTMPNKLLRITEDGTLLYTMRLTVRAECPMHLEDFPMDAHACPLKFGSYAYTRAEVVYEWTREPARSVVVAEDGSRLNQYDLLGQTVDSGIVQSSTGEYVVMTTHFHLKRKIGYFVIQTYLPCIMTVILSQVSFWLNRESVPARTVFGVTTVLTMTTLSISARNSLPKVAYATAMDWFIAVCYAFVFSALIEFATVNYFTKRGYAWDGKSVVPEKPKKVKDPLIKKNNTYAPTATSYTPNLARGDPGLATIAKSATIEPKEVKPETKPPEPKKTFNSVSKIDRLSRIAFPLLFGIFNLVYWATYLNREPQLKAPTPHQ
T1 sequence (P47870 whole entry): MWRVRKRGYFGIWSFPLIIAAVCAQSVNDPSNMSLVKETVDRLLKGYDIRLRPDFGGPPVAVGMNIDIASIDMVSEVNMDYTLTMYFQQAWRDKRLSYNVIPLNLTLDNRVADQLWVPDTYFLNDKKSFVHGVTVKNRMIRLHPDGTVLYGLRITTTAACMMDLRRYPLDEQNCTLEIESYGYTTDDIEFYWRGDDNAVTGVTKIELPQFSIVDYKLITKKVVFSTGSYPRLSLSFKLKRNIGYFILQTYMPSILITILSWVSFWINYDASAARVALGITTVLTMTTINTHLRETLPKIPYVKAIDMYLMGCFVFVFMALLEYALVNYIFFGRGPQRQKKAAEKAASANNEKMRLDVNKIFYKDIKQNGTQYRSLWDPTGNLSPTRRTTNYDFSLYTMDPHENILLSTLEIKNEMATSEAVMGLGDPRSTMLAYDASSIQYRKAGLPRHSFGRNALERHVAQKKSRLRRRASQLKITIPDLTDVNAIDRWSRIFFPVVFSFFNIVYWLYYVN
T1 sequence (P18507 whole entry): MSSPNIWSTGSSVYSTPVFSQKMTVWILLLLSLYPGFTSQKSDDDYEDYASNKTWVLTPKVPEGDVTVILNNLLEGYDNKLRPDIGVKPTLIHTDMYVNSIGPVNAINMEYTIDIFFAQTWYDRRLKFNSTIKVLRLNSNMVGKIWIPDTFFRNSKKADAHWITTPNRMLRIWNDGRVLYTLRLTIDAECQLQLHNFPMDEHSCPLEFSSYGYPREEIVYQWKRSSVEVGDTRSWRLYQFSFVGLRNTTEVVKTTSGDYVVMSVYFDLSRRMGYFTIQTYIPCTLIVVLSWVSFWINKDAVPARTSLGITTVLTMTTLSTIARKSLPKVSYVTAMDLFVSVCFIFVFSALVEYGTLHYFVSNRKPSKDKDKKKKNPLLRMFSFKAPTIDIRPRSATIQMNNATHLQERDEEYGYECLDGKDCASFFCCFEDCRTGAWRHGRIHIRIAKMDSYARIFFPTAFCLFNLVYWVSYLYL

[5] = Metabolic stability in human liver microsomes assessed as intrinsic clearance at 1 uM preincubated for 10 mins followed by NADPH addition by LC-MS analysis; format: ADME, Microsome; settings: read-out: CLH
[6] = Metabolic stability in Sprague-Dawley rat liver microsomes assessed as compound remaining at 1 uM preincubated for 10 mins followed by NADPH addition by LC-MS analysis; format: ADME, Microsome; settings: read-out: Stability
[7] = Metabolic stability in Sprague-Dawley rat liver microsomes assessed as intrinsic clearance at 1 uM preincubated for 10 mins followed by NADPH addition by LC-MS analysis; format: ADME, Microsome; settings: read-out: CLH
[8] = Metabolic stability in human liver microsomes assessed as compound remaining at 1 uM preincubated for 10 mins followed by NADPH addition by LC-MS analysis; format: ADME, Microsome; settings: read-out: Stability
[9] = molecular target: GABA-A receptor; anion channel; test: Inhibition of [35S]TBPS binding to GABA-A receptor in Sprague-Dawley rat brain cortical membrane incubated for 90 mins by liquid scintillation spectrometry; format: cell membranes, Cortex

Row | SMILES | Emax [1] | EC50 [2] | Emax [3] | EC50 [4] | CLint scaled at 1 µM [5] | remaining at 1 µM [6] | CLint scaled at 1 µM [7] | remaining at 1 µM [8] | IC50 [9]
1 | C[C@@]1(O)CC[C@H]2[C@H](CC[C@@H]3[C@@H]2CC[C@]2(C)[C@@H](C(=O)Cn4cnn(-c5cc(F)ccn5)c4=O)CC[C@@H]32)C1 | 446% | 68 nM | 720% | 340 nM |  |  |  |  | 
2 | Cn1ncn(CC(=O)[C@H]2CC[C@H]3[C@@H]4CC[C@@H]5C[C@](C)(O)CC[C@@H]5[C@H]4CC[C@]23C)c1=O | 242% | 305 nM | 497% | 444 nM |  |  |  |  | 
3 | C[C@@]1(O)CC[C@H]2[C@H](CC[C@@H]3[C@@H]2CC[C@]2(C)[C@@H](C(=O)Cn4cnn(CC(F)(F)F)c4=O)CC[C@@H]32)C1 | 378% | 1240 nM | 1280% | 548 nM |  |  |  |  | 
4 | C[C@@]1(O)CC[C@H]2[C@H](CC[C@@H]3[C@@H]2CC[C@]2(C)[C@@H](C(=O)Cn4cnn(-c5cccc(F)c5F)c4=O)CC[C@@H]32)C1 | 445% | 42 nM | 526% | 126 nM |  |  |  |  | 
5 | C[C@@]1(O)CC[C@H]2[C@H](CC[C@@H]3[C@@H]2CC[C@]2(C)[C@@H](C(=O)Cn4cnn(-c5ccccc5)c4=O)CC[C@@H]32)C1 | 430% | 29 nM | 430% | 90 nM |  |  |  |  | 
6 | C[C@@]1(O)CC[C@H]2[C@H](CC[C@@H]3[C@@H]2CC[C@]2(C)[C@@H](C(=O)Cn4cnn(-c5cccc(OC(F)(F)F)c5)c4=O)CC[C@@H]32)C1 | 629% | 41 nM | 1580% | 182 nM |  |  |  |  | 
7 | C[C@@]1(O)CC[C@H]2[C@H](CC[C@@H]3[C@@H]2CC[C@]2(C)[C@@H](C(=O)Cn4cnn(-c5ccc(F)cc5F)c4=O)CC[C@@H]32)C1 | 692% | 89 nM | 542% | 784 nM |  |  |  |  | 
8 | C[C@@]1(O)CC[C@H]2[C@H](CC[C@@H]3[C@@H]2CC[C@]2(C)[C@@H](C(=O)Cn4cnn(-c5ccc(F)cc5)c4=O)CC[C@@H]32)C1 | 390% | 170 nM | 410% | 220 nM |  |  |  |  | 
9 | C[C@@]1(O)CC[C@H]2[C@H](CC[C@@H]3[C@@H]2CC[C@]2(C)[C@@H](C(=O)Cn4cnn(-c5ccccc5F)c4=O)CC[C@@H]32)C1 | 710% | 107 nM | 541% | 171 nM |  |  |  |  | 
10 | C[C@@]1(O)CC[C@H]2[C@H](CC[C@@H]3[C@@H]2CC[C@]2(C)[C@@H](C(=O)Cn4cnn(-c5nccs5)c4=O)CC[C@@H]32)C1 | 763% | 126 nM | 633% | 330 nM |  |  |  |  | 
11 | C[C@@]1(O)CC[C@H]2[C@H](CC[C@@H]3[C@@H]2CC[C@]2(C)[C@@H](C(=O)Cn4cnn(-c5cc(F)cc(F)c5)c4=O)CC[C@@H]32)C1 | 1040% | 35 nM | 441% | 154 nM |  |  |  |  | 
12 | C[C@@]1(O)CC[C@H]2[C@H](CC[C@@H]3[C@@H]2CC[C@]2(C)[C@@H](C(=O)Cn4cnn(CC5CC5)c4=O)CC[C@@H]32)C1 | 727% | 122 nM | 931% | 163 nM | 38 mL/min/kg | 5.9% | 280 mL/min/kg | 26.4% | 
13 | C[C@@]1(O)CC[C@H]2[C@H](CC[C@@H]3[C@@H]2CC[C@]2(C)[C@@H](C(=O)Cn4cnn(C5CCCCC5)c4=O)CC[C@@H]32)C1 | 873% | 237 nM | 685% | 585 nM |  |  |  |  | 
14 | CCn1ncn(CC(=O)[C@H]2CC[C@H]3[C@@H]4CC[C@@H]5C[C@](C)(O)CC[C@@H]5[C@H]4CC[C@]23C)c1=O | 632% | 270 nM | 526% | 190 nM |  |  |  |  | 
15 | C[C@@]1(O)CC[C@H]2[C@H](CC[C@@H]3[C@@H]2CC[C@]2(C)[C@@H](C(=O)Cn4ccn(-c5cccc(F)c5)c4=O)CC[C@@H]32)C1 | 594% | 139 nM | 552% | 241 nM |  |  |  |  | 1 nM
16 | C[C@@]1(O)CC[C@H]2[C@H](CC[C@@H]3[C@@H]2CC[C@]2(C)[C@@H](C(=O)Cn4cnn(-c5cc(F)ccc5F)c4=O)CC[C@@H]32)C1 | 347% | 79 nM | 743% | 340 nM |  |  |  |  | 
17 | COc1cccc(-n2ncn(CC(=O)[C@H]3CC[C@H]4[C@@H]5CC[C@@H]6C[C@](C)(O)CC[C@@H]6[C@H]5CC[C@]34C)c2=O)c1 | 410% | 21 nM | 570% | 26 nM | 24 mL/min/kg | 14.2% | 176 mL/min/kg | 43.5% | 
18 | CC(C)(C)n1ncn(CC(=O)[C@H]2CC[C@H]3[C@@H]4CC[C@@H]5C[C@](C)(O)CC[C@@H]5[C@H]4CC[C@]23C)c1=O | 806% | 268 nM | 749% | 310 nM |  |  |  |  | 
19 | C[C@@]1(O)CC[C@H]2[C@H](CC[C@@H]3[C@@H]2CC[C@]2(C)[C@@H](C(=O)Cn4cnn(-c5ccc6c(c5)OCO6)c4=O)CC[C@@H]32)C1 | 387% | 266 nM | 1200% | 139 nM |  |  |  |  | 
20 | C[C@@]1(O)CC[C@H]2[C@H](CC[C@@H]3[C@@H]2CC[C@]2(C)[C@@H](C(=O)Cn4cnn(C5CCCC5)c4=O)CC[C@@H]32)C1 | 691% | 203 nM | 830% | 192 nM |  |  |  |  | 
21 | C[C@@]1(O)CC[C@H]2[C@H](CC[C@@H]3[C@@H]2CC[C@]2(C)[C@@H](C(=O)Cn4cnn(-c5cncc(F)c5)c4=O)CC[C@@H]32)C1 | 618% | 150 nM | 601% | 145 nM |  |  |  |  | 
22 | C[C@@]1(O)CC[C@H]2[C@H](CC[C@@H]3[C@@H]2CC[C@]2(C)[C@@H](C(=O)Cn4cnn(-c5cccc(F)n5)c4=O)CC[C@@H]32)C1 | 724% | 360 nM | 966% | 368 nM |  |  |  |  | 
23 | C[C@@]1(O)CC[C@H]2[C@H](CC[C@@H]3[C@@H]2CC[C@]2(C)[C@@H](C(=O)Cn4cnn(-c5cccc(C#N)c5)c4=O)CC[C@@H]32)C1 | 1050% | 50 nM | 683% | 112 nM |  |  |  |  | 
24 | C[C@@]1(O)CC[C@H]2[C@H](CC[C@@H]3[C@@H]2CC[C@]2(C)[C@@H](C(=O)Cn4cnn(-c5cccc(N)c5)c4=O)CC[C@@H]32)C1 | 786% | 213 nM | 1070% | 349 nM |  |  |  |  | 
25 | C[C@@]1(O)CC[C@H]2[C@H](CC[C@@H]3[C@@H]2CC[C@]2(C)[C@@H](C(=O)Cn4ncn(-c5cccc(F)c5)c4=O)CC[C@@H]32)C1 | 1260% | 112 nM | 334% | 371 nM |  |  |  |  | 1 nM
